This test has as its target T1, IRAK4 (Homo sapiens, UniProt Q9NWZ3).
T1 construct: endogenous in cells; host or cells: OCI-LY10
T1 sequence (Q9NWZ3 1-460): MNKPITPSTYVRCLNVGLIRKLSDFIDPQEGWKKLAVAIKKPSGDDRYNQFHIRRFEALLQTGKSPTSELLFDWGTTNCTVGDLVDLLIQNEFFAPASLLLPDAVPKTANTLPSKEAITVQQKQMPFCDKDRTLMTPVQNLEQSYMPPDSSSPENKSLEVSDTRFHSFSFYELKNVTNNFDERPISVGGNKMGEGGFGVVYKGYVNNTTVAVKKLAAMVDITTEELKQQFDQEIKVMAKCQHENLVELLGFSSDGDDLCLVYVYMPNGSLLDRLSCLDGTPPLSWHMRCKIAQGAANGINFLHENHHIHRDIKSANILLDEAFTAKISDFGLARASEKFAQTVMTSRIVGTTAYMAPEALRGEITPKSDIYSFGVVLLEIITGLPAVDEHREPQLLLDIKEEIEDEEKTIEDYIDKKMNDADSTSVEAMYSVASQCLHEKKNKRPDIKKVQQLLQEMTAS
The test is described as follows: IRAK4 MSD Degradation in OCI-LY10. Type of test: cell-based. To be noted: OCI-LY10 cells, Meso Scale Discovery, incubated 4 to 24 hours. On the procedure: Degradation of IRAK4 in OCI-LY10 was quantitatively measured using Meso Scale Discovery technology. OCI-LY10 cells were seeded in 96-well plates (Corning 3799) with a density of 300,000 cells per well in 100 μL fresh media. Compounds were then added to the assay plates with a final top concentration of 1 to 10 μM in a 1:3 dilution series with total of 8 doses. The assay plates were then incubated for 4 to 24 hours at 37° C. under 5% CO2. The assay plates were then centrifuged for 5 minutes and the cell pellets were treated with 100 μL/well RIPA lysis buffer (Boston BioProducts BP-115D) with proteinase inhibitors. To prepare MSD assay plates (Meso Scale Discovery Catalog number L15XA-3), the plates were coated with 2 μg/mL capture antibody (mouse Anti-IRAK4 antibody [2H9], ab119942) in PBS, at 40 μL/well. The plates were then incubated overnight at 4° C., washed 3 times with 150 μL/well TBST buffer (Cell Signaling Technology, Catalog number 9997S) and blocked with 150 μL/well blocking buffer (Meso Scale Discovery Catalog number R93BA-4). Cell lysates were then added to MSD assay plates and the plates were incubated at room temperature for 1 hour. The plates were then washed 3 times with 150 μL/well TBST buffer and […] primary detection antibody (rabbit Anti-IRAK4 antibody [Y279], from Abcam. Catalog number ab32511, 1 μg/mL). The assay plates were then incubated at room temperature for 1 hour, washed 3 times with 150 μL/well TBST buffer and 254/well secondary detection antibody, SULFO-TAG anti-rabbit antibody were added (anti rabbit antibody from Meso Scale Discovery, Catalog number R32AB-1, 1 μg/mL). The assay plates were then incubated at room temperature for 1 hour, washed 3 times with 150 μL/well TBST buffer, and 150 μL/well MSD reading buffer (Meso Scale Discovery catalog number R92TC-2) was added. The plates were then analyzed by a MSD reader (Meso Scale Discovery, Model Quick Plex SQ 120). The data was then analyzed by software Prism 7.0 from GraphPad and the dose-depended IRAK4 degradation were fit using a three-parameter logistic equation to calculate DC50.
The letter codes for IRAK4 DC50 include: A (<0.01 μM); B (0.01-0.05 μM); C (0.05-0.1 μM); D (0.1-0.2 μM); and E (>0.2 μM).

Among the data in US12150995B2, “IRAK degraders and uses thereof” (Kymera Therapeutics, Inc., priority 2020, dated 2024) are DC50 values, retold here.

For orientation: DC50 means the concentration giving 50% degradation. Turning to `COc1cc2nn([C@H]3C[C@H](CN(C)C4CCN(c5cccc6c5n(C)c(=O)n6C5CCC(=O)NC5=O)CC4)C3)cc2cc1NC(=O)c1cccc(C(F)(F)F)n1` (stereo partly drawn) [I-31, N-[2-[3-[[[1-[1-(2,6-dioxo-3-piperidyl)-3-methyl-2-oxo-benzimidazol-4-yl]-4-piperidyl]-methyl-amino]methyl]cyclobutyl]-6-methoxy-indazol-5-yl]-6-(trifluoromethyl)pyridine-2-carboxamide], the DC50 is under 0.01 µM. With `COc1cc2nn([C@H]3CC[C@H](CN(C)C4CCN(c5ccc6c(N7CCC(=O)NC7=O)cncc6c5)CC4)CC3)cc2cc1NC(=O)c1cccc(C(F)(F)F)n1` [I-320], the DC50 was under 0.01 µM. For `COc1cc2nn([C@H]3CC[C@H](CN4C5CC4CN(c4cccc6c(N7CCC(=O)NC7=O)cncc46)C5)CC3)cc2cc1NC(=O)c1cccc(C(F)(F)F)n1` [I-220], the DC50 was under 0.01 µM. The compound `Cn1c(=O)n(C2CCC(=O)NC2=O)c2cccc(C3CCN(C[C@H]4CC[C@H](N5Cc6cc(NC(=O)c7cccc(C(F)(F)F)n7)c(N7C[C@@H]8C[C@H]7CO8)cc6C5=O)CC4)CC3)c21` (stereo partly drawn) [I-27] came in with a DC50 of under 0.01 µM. Compound `COc1cc2nn([C@H]3CC[C@H](CN4CCC(c5cccc6c5n(C)c(=O)n6C5CCC(=O)NC5=O)CC4)CC3)cc2cc1NC(=O)n1ccc2cccnc21` (stereo partly drawn) [I-112] gave a 50% degradation concentration (DC50) of under 0.01 µM.

As to `Cc1ccc2c(c1C1CCN(C[C@H]3CC[C@H](n4cc5cc(NC(=O)c6cccc(C#N)n6)ccc5n4)CC3)CC1)n(C)c(=O)n2C1CCC(=O)NC1=O` (stereo partly drawn) [I-323], the DC50 was under 0.01 µM.

The compound `Cn1c(=O)n(C2CCC(=O)NC2=O)c2cccc(C#CCN3CCN(C[C@H]4CC[C@H](n5cc6cc(NC(=O)c7cccc(C(F)(F)F)n7)c(C(C)(C)O)cc6n5)CC4)CC3)c21` (stereo partly drawn) [I-326] came in with a DC50 of under 0.01 µM. `Cc1cccc(C(=O)Nc2cc3sc([C@H]4CC[C@H](CN5CCN(CCNc6cccc7c6C(=O)N(C6CCC(=O)NC6=O)C7=O)[C@@H](C)C5)CC4)nc3cc2C(C)(C)O)n1` (stereo partly drawn) [I-467] registered a DC50 of 0.01 to 0.05 µM.

The compound `N#Cc1cc2nn([C@H]3CC[C@H](CN4CCC(c5cccc6c(N7CCC(=O)NC7=O)cncc56)CC4)CC3)cc2cc1NC(=O)c1cccc(C(F)(F)F)n1` [I-213] gave a DC50 of under 0.01 µM.

`CN(CCCN(C)[C@H]1C[C@H](Nc2cccc3c2C(=O)N(C2CCC(=O)NC2=O)C3=O)C1)C[C@H]1CC[C@H](n2cc3cc(NC(=O)c4cccc(C(F)(F)F)n4)c(C(C)(C)O)cc3n2)CC1` (stereo partly drawn) [I-263] displayed a 50% degradation concentration (DC50) of 0.01 to 0.05 µM. Compound `COc1ccc2c(c1C1CCN(C[C@H]3CC[C@H](n4cc5cc(NC(=O)c6cccc(C(F)(F)F)n6)ncc5n4)CC3)CC1)n(C)c(=O)n2C1CCC(=O)NC1=O` (stereo partly drawn) [I-83] yielded a half-maximal degradation concentration (DC50) of under 0.01 µM. Compound `CC(C)Nc1cc(-n2ccc3cc(C#N)cnc32)ncc1C(=O)N[C@H]1CC[C@H](CN2CCC(c3cccc4c(N5CCC(=O)NC5=O)cncc34)CC2)CC1` [I-190] returned a DC50 of under 0.01 µM. On to `COc1cc2nn([C@H]3C[C@H](CN4CC(c5cccc6c5n(C)c(=O)n6C5CCC(=O)NC5=O)C4)C3)cc2cc1NC(=O)c1cccc(C(F)(F)F)n1` (stereo partly drawn) [I-46, N-[2-[3-[[3-[1-(2,6-dioxo-3-piperidyl)-3-methyl-2-oxo-benzimidazol-4-yl]azetidin-1-yl]methyl]cyclobutyl]-6-methoxy-indazol-5-yl]-6-(trifluoromethyl)pyridine-2-carboxamide], for which the 50% degradation concentration (DC50) fell in the range of 0.01 to 0.05 µM. In the case of `COc1cc2nn([C@H]3CC[C@H](CN4CCC(c5ccc6c(N7CCC(=O)NC7=O)cncc6c5)CC4)CC3)cc2cc1NC(=O)c1cncc(C#N)c1` [I-122], the half-maximal degradation concentration (DC50) lay in the range of 0.1 to 0.2 µM. The compound `COc1cc2nn([C@H]3CC[C@H](CN4CC=C(c5cccc6c(N7CCC(=O)NC7=O)cncc56)CC4)CC3)cc2cc1NC(=O)c1cccc(C(F)(F)F)n1` [I-357] displayed a DC50 of under 0.01 µM. `Cc1ccc2c(c1C1CCN(C[C@H]3C[C@H](n4cc5cc(NC(=O)c6cccc(C(F)(F)F)n6)ccc5n4)C3)CC1)n(C)c(=O)n2C1CCC(=O)NC1=O` (stereo partly drawn) [I-148] displayed a 50% degradation concentration (DC50) of 0.1 to 0.2 µM. `CN(C[C@H]1CC[C@H](n2cc3cc(NC(=O)c4cccc(C(F)(F)F)n4)ccc3n2)CC1)C1CCN(c2cccc3c(N4CCC(=O)NC4=O)cncc23)CC1` [I-98] registered a half-maximal degradation concentration (DC50) of over 0.2 µM. In the case of `CN(C[C@H]1CC[C@H](n2cc3cc(NC(=O)c4cccc(C(F)(F)F)n4)c(C(C)(C)O)cc3n2)CC1)C1CCN(c2cccc3c(N4CCC(=O)NC4=O)cncc23)CC1` [I-66] it was under 0.01 µM. Turning to `CN(CCCNc1cccc2c1C(=O)N(C1CCC(=O)NC1=O)C2=O)C[C@H]1CC[C@H](c2nc3cc(C(C)(C)O)c(NC(=O)c4cccc(C(F)(F)F)n4)cc3s2)CC1` (stereo partly drawn) [I-490], the 50% degradation concentration (DC50) was over 0.2 µM. In the case of `Cn1c(=O)n(C2CCC(=O)NC2=O)c2cccc(C3CCN(C[C@H]4CC[C@H](n5cc6cc(NC(=O)c7cccc(C(F)(F)F)n7)c(C(F)(F)F)cc6n5)CC4)CC3)c21` (stereo partly drawn) [I-76] it was 0.01 to 0.05 µM; in that of `COc1cc2nn([C@H]3CC[C@H](CN4CCN(c5cccc6c5n(C5CC5)c(=O)n6C5CCC(=O)NC5=O)CC4)CC3)cc2cc1NC(=O)c1cccc(C(F)(F)F)n1` (stereo partly drawn) [I-426], under 0.01 µM. In turn, `Cc1cc2nn([C@H]3CC[C@H](CN4C[C@@H]5C[C@H]4CN5c4cccc5c4n(C)c(=O)n5C4CCC(=O)NC4=O)CC3)cc2cc1NC(=O)c1cccc(C(F)(F)F)n1` (stereo partly drawn) [I-303] came in with a DC50 of under 0.01 µM. Compound `Cn1c(=O)n(C2CCC(=O)NC2=O)c2cc(F)cc(C3CCN(C[C@H]4CC[C@H](n5cc6cc(NC(=O)c7cccc(C(F)(F)F)n7)c(F)cc6n5)CC4)CC3)c21` (stereo partly drawn) [I-26] showed a half-maximal degradation concentration (DC50) of under 0.01 µM. In the case of `Cn1c(=O)n(C2CCC(=O)NC2=O)c2cccc(N3CCN(C[C@H]4CC[C@H](n5cc6cc(NC(=O)c7cccc(C(F)(F)F)n7)c(N7C[C@H]8C[C@@H]7CO8)cc6n5)CC4)CC3)c21` (stereo partly drawn) [I-384], the DC50 is under 0.01 µM. Consider `Cn1c(=O)n(C2CCC(=O)NC2=O)c2cccc(C3CCN(C[C@H]4CC[C@H](n5cc6cc(NC(=O)c7cnccn7)c(F)cc6n5)CC4)CC3)c21` (stereo partly drawn) [I-49], for which the 50% degradation concentration (DC50) is over 0.2 µM. The compound `COc1cc2nn([C@H]3CC[C@H](CN4CCN(c5cccc6c5n(C)c(=O)n6C5CCC(=O)NC5=O)CC4)CC3)cc2cc1NC(=O)c1cncc(C(F)(F)F)n1` (stereo partly drawn) [I-297] came in with a half-maximal degradation concentration (DC50) of under 0.01 µM. The compound `Cn1c(=O)n(C2CCC(=O)NC2=O)c2cccc(N3CC4CC(C3)N4C[C@H]3CC[C@@H](n4cc5cc(NC(=O)c6cccc(C(F)(F)F)n6)ccc5n4)CC3)c21` (single isomer, unassigned) [I-156, N-[2-[4-[[3-[1-(2,6-dioxo-3-piperidyl)-3-methyl-2-oxo-benzimidazol-4-yl]-3,6-diazabicyclo[3.1.1]heptan-6-yl]methyl]cyclohexyl]indazol-5-yl]-6-(trifluoromethyl)pyridine-2-carboxamide] returned a half-maximal degradation concentration (DC50) of over 0.2 µM. Take `Cc1ccc2c(c1C1CCN(C[C@H]3CC[C@H](n4cc5cc(NC(=O)c6cccc(C(F)(F)F)n6)ccc5n4)CC3)CC1)n(C)c(=O)n2C1CCC(=O)NC1=O` (stereo partly drawn) [I-99]: the DC50 is under 0.01 µM. For the compound `Cn1c(=O)n(C2CCC(=O)NC2=O)c2ccc(F)c(C3CCN(C[C@H]4C[C@H](n5cc6cc(NC(=O)c7cccc(C(F)(F)F)n7)ncc6n5)C4)CC3)c21` (stereo partly drawn) [I-147], the DC50 was 0.05 to 0.1 µM.

`Cn1c(=O)n(C2CCC(=O)NC2=O)c2ccc(F)c(C3CCN(C[C@H]4CC[C@H](n5cc6cc(NC(=O)c7cccc(C(F)(F)F)n7)ccc6n5)CC4)CC3)c21` (stereo partly drawn) [I-74] had a half-maximal degradation concentration (DC50) of 0.01 to 0.05 µM.

Turning to `CN(C[C@H]1CC[C@H](n2cc3cc(NC(=O)c4cccc(C(F)(F)F)n4)ncc3n2)CC1)C1CCN(c2cccc3c(N4CCC(=O)NC4=O)cncc23)CC1` [I-79], the 50% degradation concentration (DC50) is over 0.2 µM.

The compound `COc1cc2nn([C@H]3CC[C@H](CN4CCC(c5ccc6c(c5C)n(C)c(=O)n6C5CCC(=O)NC5=O)CC4)CC3)cc2cc1NC(=O)c1cccc(C(F)(F)F)n1` (stereo partly drawn) [I-173] registered a DC50 of under 0.01 µM. In the case of `Cn1c(=O)n(C2CCC(=O)NC2=O)c2c(F)ccc(C3CCN(C[C@H]4CC[C@H](n5cc6cc(NC(=O)c7cccc(C(F)(F)F)n7)c(F)cc6n5)CC4)CC3)c21` (stereo partly drawn) [I-25] it was under 0.01 µM.
